According to patent US6630124B1, “Combination therapy with VIP antagonist” (Ramot-University Authority for Applied Research and …, priority 1998, dated 2003):
Where a SMILES comes first, the peptide text is derived from it. [ ]: non-standard residue; d: D form. The star is where a group is joined. Stearoyl = CCCCCCCCCCCCCCCCCC(=O)*; Nle = CCCC[C@H](N)C(=O)O

Key:
Type in all cases: cell-based
[1] = test system: MCF-7 breast cancer cells; experiment: MTT assay, Taxol with or without SNVIPhyb; conditions: 10 μM SNVIPhyb, MTT assay
Excerpt: The ability of SNVIPhyb to inhibit cancer growth was investigated.

[2] = test system: NCI-H727 non-small cell lung cancer (carcinoid); experiment: MTS cell proliferation assay, SNH and chemotherapy; conditions: 8 μM SNH, 6 hour incubation, then 66 hour fresh medium
Description: NCI-H727 and LNCaP were grown in RPMI 1640 medium supplemented with 10% heat inactivated FCS, L-glutamine and antibiotics. HT-29 and CT-26 were grown in DMEM medium supplemented with 10% heat-inactivated FCS (fetal calf serum), L-glutamine and antibiotics. The cells were cultured in 5% CO2/95% air at […] and used during their exponential growth phase. Routinely, the cells which are adherent, were split when a subconfluent monolayer was formed. In different experiments, various concentration of FCS were used. For growth inhibition experiments, subconfluent adherent cells were washed with PBS and treated with trypsin/versene. The cells were pelleted and resuspended in medium to a final concentration of 75,000 cells/mL for NCI-H727. 50,000 cells/mL for LNCaP and HT-29 and 25000 cells/mL for CT-26. These different concentrations were used in order to avoid confluence in the wells at the end of the experiment and correspond to the different doubling times of the cell lines. On day 0, cells suspensions […] were dispensed using a multi-channel pipet into the individual wells of a 96-well tissue culture plate (Nuncion, Nunc Brand Products). […] Cells were incubated for 24 hours in a humidified atmosphere of 95% air/5% CO2 at 37° C. before treatment. On day 1, the cells were treated with different drugs and schedules and maintained under the same conditions. On day 4, viable cell number was determined by a modified MTT assay i.e., MTS non-radioactive cell proliferation assay (Promega). […] Results were finally expressed as percentage of the control, which was obtained from the samples with no drug treatment. Dose-response curves were plotted using a Sigma-Plot software and statistically analyzed using Student test. To determine the effect of the lipophilic VIP antagonist SNH on cell proliferation, cells plated in 96-well microplates for 24 hours as described, were treated with various concentrations of SNH. The peptide was diluted in PBS and […] of the peptide solution was added to each well for a final concentration of the peptide between 10^−510^−9 M. The solvent was added to the control wells. […] A dose-response curve was obtained at concentrations ranging from 2 μM-10 μM (see, FIG. 2). […] The effects of an 8 hours treatment were slightly less, showing that most of the effect is in the initial hours of exposure and much more dose than time dependent. […] For the experiments with the combinations of VIP antagonists and chemotherapeutic agents, on day 0, the cells were plated for 24 hours in medium supplemented with 5% FCS. On day 1, the peptide was added to the wells followed 1 hour later by the chemotherapeutic agents. […] The chemotherapeutic drugs were tested over 7 concentrations, covering as much as possible of the dose response curve of each individual drug. 24 hours later, the medium was exchanged and the cells incubated under the same conditions for another 48 hours. On day 4 the number of viable cells was determined by MTS assay.

MCF-7 cells = experiment: MTT colorimetric assay, breast cancer cells (Example 6); conditions: compared with VIPhyb
Description: The ability of VIP receptor antagonists to alter the growth of breast cancer cells was investigated in vitro using the MTT colorimetric. The semiautomated MTT assay measures reduction of a tetrazolium compound by tumor cells to formazan. The optical density at 570 nm was determined for 8 wells at each inhibitor concentration. Seeding densities were 5×10^4 cells/well and cells were grown in 96 well plates for 5 days.

With `CCCCCCCCCCCCCCCCCC(=O)N[C@@H](CCCCN)C(=O)N1CCC[C@H]1C(=O)N[C@@H](CCCNC(=N)N)C(=O)N[C@@H](CCCNC(=N)N)C(=O)N1CCC[C@H]1C(=O)N[C@@H](Cc1ccc(O)cc1)C(=O)N[C@H](C(=O)N[C@@H](CC(=O)O)C(=O)N[C@@H](CC(N)=O)C(=O)N[C@@H](Cc1ccc(O)cc1)C(=O)N[C@H](C(=O)N[C@@H](CCCNC(=N)N)C(=O)N[C@@H](CC(C)C)C(=O)N[C@@H](CCCNC(=N)N)C(=O)N[C@@H](CCCCN)C(=O)N[C@@H](CCC(N)=O)C(=O)N[C@@H](CCCC)C(=O)N[C@@H](C)C(=O)N[C@H](C(=O)N[C@@H](CCCCN)C(=O)N[C@@H](CCCCN)C(=O)N[C@@H](Cc1ccc(O)cc1)C(=O)N[C@@H](CC(C)C)C(=O)N[C@@H](CC(N)=O)C(=O)N[C@@H](CO)C(=O)N[C@H](C(=O)N[C@@H](CC(C)C)C(=O)N[C@@H](CC(N)=O)C(N)=O)[C@@H](C)CC)C(C)C)[C@@H](C)O)[C@@H](C)O` [SNH] (Stearoyl-KPRRPYTDNYTRLRKQ[Nle]AVKKYLNSILN-NH2) the “effect on MCF-7 breast cancer proliferation” value [1] was “little effect”, the “reduction in viable cells” value [2] was 40% and the “relative potency as inhibitor of proliferation” value (MCF-7 cells) was “more potent inhibitor than VIPhyb”.
